This is an account of results in publication PMC9530963, “A cathelicidin antimicrobial peptide from Hydrophis cyanocinctus inhibits Zika virus infection by downregulating expression of a viral entry factor” (The Journal of Biological Chemistry, 2022).

The test system of one series is ZIKV. Description: Susceptibility of U251 cells to ZIKV (peptide pretreatment). In kind it is cell-based, ZIKV strain PRVABC59. Particulars: 1.25, 2.5, and 5 μM, 2 h before ZIKV MOI = 1; 24 h; Western blot. How it is done:
Figure 5 Hc-CATH downregulates AXL in U251 cell.A, schematic diagram of B and C. B, U251 cells were seeded in 24-well plates (5 × 10^4 cells/well) and cultured in DMEM containing 2% FBS. Hc-CATH (1.25, 2.5, and 5 μM) or same volume of PBS (peptide solvent) was added to cells and incubated at 37 °C for 24 h. The level of AXL was tested by Western blot. C, U251 cells were seeded in 8-well cover slip chambers (5 × 10^4 cells/well) and cultured in DMEM containing 2% FBS. Hc-CATH (1.25, 2.5, and 5 μM) or PBS was added to cells and incubated at 37 °C for 24 h. The level of AXL was tested by immunofluorescence staining. The scale bar represents 50 μm. D, schematic diagram of E–G. E–G, U251 cells were seeded in 24-well plates (5 × 10^4 cells/well) and cultured in DMEM containing 2% FBS. Hc-CATH (1.25, 2.5, and 5 μM) or PBS was added to cells and incubated at 37 °C for 2 h. Cells were washed with PBS and incubated with ZIKV (MOI = 1). After incubation at 37 °C for 2 h, cells were washed with PBS and cultured in DMEM containing 2% FBS.
Vero, A549, or U251 cells were incubated with peptide or PBS at 37 °C for 2 h. […]
The effect of Hc-CATH on AXL was further confirmed in A549 and U251 cells. A549 or U251 cells were incubated with Hc-CATH (1.25, 2.5, and 5 μM) or PBS at 37 °C for 24 h, and the level of AXL was detected by WB and IF, respectively. […]

The subject of another series is COX-2. The series can be described thus: COX-2 protein level in A549 cells (Western blot). Particulars: A549 cells, 1.25, 2.5, or 5 μM, 24 h. Type of series: cell-based, Homo sapiens. How it is done: Figure 6 Hc-CATH downregulates AXL via inhibiting COX-2/PGE2/AC/PKA pathway.A, effect of Hc-CATH on COX-2 protein level. A549 cells were incubated with Hc-CATH (1.25, 2.5, or 5 μM) or PBS (solvent of Hc-CATH) at 37 °C for 24 h, COX-2 protein level was examined by Western blot (upper panel) and analyzed by ImageJ (lower panel). B, effect of Hc-CATH on the enzymatic activity of COX-2. Hc-CATH (1.25, 2.5, 5, and 10 μM) or PBS was incubated with COX-2. After incubation at 37 °C for 10 min, the enzymatic activity of COX-2 was detected by enzyme activity inhibitor screening kit. Celecoxib (COX-2 inhibitor, 100 nM) was used as positive control. C, effect of Hc-CATH on PGE2 production. A549 cells were incubated with Hc-CATH (5 μM) at 37 °C. After incubation for 24 h, the level of PGE2 in the cell supernatant was detected by ELISA. D and E, effect of AC (D) and PKA (E) on Hc-CATH-induced AXL downregulation. A549 cells were incubated with forskolin (FSK, agonist of AC, 10 μM) or H89 (inhibitor of PKA, 5 μM) at 37 °C. After incubation for 1 h, the culture media were removed, cells were washed three times with PBS, and fresh culture media were added to cells in the presence of Hc-CATH (5 μM). After incubation for 24 h, AXL protein level was examined by Western blot (upper panel of D and E) and analyzed by ImageJ (lower panel of D and E). ns, not significant, ∗∗p < 0.01, and ∗∗∗p < 0.001. […]
A general note: Immunoblotting shows a protein as a band on a membrane.

For series [1] the following is noted: cited from earlier work. The text has this: Antimicrobial peptides (AMPs), also called host defense peptides, are a group of relatively small cationic peptides. They are an important part of the innate immune system and play an important role in fighting against bacterial infection ([26]). Recently, more and more studies have shown that AMPs can also exert antiviral effects by inhibiting virus adsorption, disrupting virus envelope, and regulating host antiviral immune response ([27], [28], [29]).

With “KFFKRLLKSVRRAVKKFRKKPRLIGLSTLL [Hc-CATH]”, in the series on ZIKV, the “susceptibility of U251 cells to ZIKV (NS3 protein)” value was “decreased the susceptibility”. Moreover, the “expression of COX-2” value in the series with COX-2 is given as “did not influence the expression of COX-2”. Also, in series [1], the cytotoxicity entry was “low cytotoxicity” and the stability result was “high stability”.
